Measured values taken from PubChem BioAssay (NCI).
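Method: 48-hour compound exposure of cells in 96-well plates, five concentrations, linear interpolation of endpoints. Here, GI50 denotes the concentration required for 50% inhibition of growth. Definition used: TGI = concentration required for complete inhibition of growth.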

Legend:
Assay in all cases: DTP human tumour cell line panel, 48 h
RXF 393 renal = tested on: RXF 393 renal
SW-620 colon = tested on: SW-620 colon
KM12 colon = tested on: KM12 colon
M14 melanoma = tested on: M14 melanoma
DU-145 prostate = tested on: DU-145 prostate
MCF7 breast = tested on: MCF7 breast
ACHN renal = tested on: ACHN renal
NCI-H226 lung = tested on: NCI-H226 lung
CAKI-1 renal = tested on: CAKI-1 renal
OVCAR-8 ovarian = tested on: OVCAR-8 ovarian
NCI/ADR-RES ovarian = tested on: NCI/ADR-RES ovarian
MOLT-4 leukemia = tested on: MOLT-4 leukemia
TK-10 renal = tested on: TK-10 renal
786-0 renal = tested on: 786-0 renal
T-47D breast = tested on: T-47D breast
SK-MEL-2 melanoma = tested on: SK-MEL-2 melanoma
LOX IMVI melanoma = tested on: LOX IMVI melanoma
SNB-19 CNS = tested on: SNB-19 CNS
PC-3 prostate = tested on: PC-3 prostate
OVCAR-3 ovarian = tested on: OVCAR-3 ovarian
UO-31 renal = tested on: UO-31 renal
SK-MEL-5 melanoma = tested on: SK-MEL-5 melanoma
MDA-MB-435 = tested on: MDA-MB-435
HCC-2998 colon = tested on: HCC-2998 colon
OVCAR-4 ovarian = tested on: OVCAR-4 ovarian
HL-60(TB) leukemia = tested on: HL-60(TB) leukemia
U251 CNS = tested on: U251 CNS
HOP-92 NSCLC = tested on: HOP-92 NSCLC
SR leukemia = tested on: SR leukemia
A498 renal = tested on: A498 renal
BT-549 breast = tested on: BT-549 breast
NCI-H23 lung = tested on: NCI-H23 lung
HS 578T breast = tested on: HS 578T breast
SF-268 CNS = tested on: SF-268 CNS
UACC-62 melanoma = tested on: UACC-62 melanoma
NCI-H522 lung = tested on: NCI-H522 lung
HT29 colon = tested on: HT29 colon
K-562 leukemia = tested on: K-562 leukemia
HOP-62 NSCLC = tested on: HOP-62 NSCLC
CCRF-CEM leukemia = tested on: CCRF-CEM leukemia
EKVX NSCLC = tested on: EKVX NSCLC
UACC-257 melanoma = tested on: UACC-257 melanoma
SK-MEL-28 melanoma = tested on: SK-MEL-28 melanoma
MDA-MB-231 breast = tested on: MDA-MB-231 breast
MALME-3M melanoma = tested on: MALME-3M melanoma
SK-OV-3 ovarian = tested on: SK-OV-3 ovarian
RPMI-8226 leukemia = tested on: RPMI-8226 leukemia
SN12C renal = tested on: SN12C renal
HCT-15 colon = tested on: HCT-15 colon
IGROV1 ovarian = tested on: IGROV1 ovarian
OVCAR-5 ovarian = tested on: OVCAR-5 ovarian
SNB-75 CNS = tested on: SNB-75 CNS
NCI-H460 lung = tested on: NCI-H460 lung
SF-295 CNS = tested on: SF-295 CNS
COLO 205 colon = tested on: COLO 205 colon
A549 NSCLC = tested on: A549 NSCLC

`CC(C)(C)c1ccc2c(c1)CNCCNCCNCc1cc(C(C)(C)C)ccc1OCC1(CO2)COc2ccc(C(C)(C)C)cc2CNCCNCCNCc2cc(C(C)(C)C)ccc2OC1` showed a TGI (RXF 393 renal) of 3740 nM, a TGI (SW-620 colon) of 1330 nM and a TGI (KM12 colon) of 562 nM. The TGI (M14 melanoma) was 1830 nM, the TGI (DU-145 prostate) was 2830 nM and the TGI (MCF7 breast) was 379 nM. It also gave a TGI (ACHN renal) of 2830 nM, a TGI (NCI-H226 lung) of 1970 nM and a TGI (CAKI-1 renal) of 3170 nM.

`COc1cc([C@@H]2c3cc4c(cc3[C@H](OC(C)=O)[C@H]3COC(=O)[C@H]23)OCO4)cc(OC)c1OC` gave a GI50 (OVCAR-8 ovarian) of 36.1 nM, a TGI (OVCAR-8 ovarian) of over 100000 nM and a GI50 (NCI/ADR-RES ovarian) of 27.1 nM. For the same compound, the TGI (NCI/ADR-RES ovarian) was over 100000 nM, the GI50 (RXF 393 renal) was 69.1 nM and the TGI (RXF 393 renal) was over 100000 nM. It also gave a GI50 (MOLT-4 leukemia) of 38.5 nM, a TGI (MOLT-4 leukemia) of over 100000 nM and a GI50 (TK-10 renal) of 75200 nM. It also gave a TGI (TK-10 renal) of over 100000 nM, a GI50 (786-0 renal) of 34.1 nM and a TGI (786-0 renal) of over 100000 nM. The GI50 (T-47D breast) was 66.9 nM, the TGI (T-47D breast) was over 100000 nM and the GI50 (SK-MEL-2 melanoma) was 27600 nM. The TGI (SK-MEL-2 melanoma) was over 100000 nM, the GI50 (LOX IMVI melanoma) was 29.3 nM and the TGI (LOX IMVI melanoma) was over 100000 nM. It also gave a GI50 (SNB-19 CNS) of 43.6 nM, a TGI (SNB-19 CNS) of over 100000 nM and a GI50 (PC-3 prostate) of 37.1 nM. It also gave a TGI (PC-3 prostate) of over 100000 nM, a GI50 (OVCAR-3 ovarian) of 34 nM and a TGI (OVCAR-3 ovarian) of over 100000 nM. The GI50 (SW-620 colon) was 33.4 nM, the TGI (SW-620 colon) was over 100000 nM and the GI50 (UO-31 renal) was 80.8 nM. For the same compound, the TGI (UO-31 renal) was over 100000 nM, the GI50 (SK-MEL-5 melanoma) was 22.9 nM and the TGI (SK-MEL-5 melanoma) was 65.8 nM. The GI50 (KM12 colon) was 30.6 nM, the TGI (KM12 colon) was over 100000 nM and the GI50 (MDA-MB-435) was 19.2 nM. The TGI (MDA-MB-435) was 53.3 nM, the GI50 (HCC-2998 colon) was 40.1 nM and the TGI (HCC-2998 colon) was over 100000 nM. The GI50 (OVCAR-4 ovarian) was 82.6 nM, the TGI (OVCAR-4 ovarian) was over 100000 nM and the GI50 (HL-60(TB) leukemia) was 22.3 nM. It also gave a TGI (HL-60(TB) leukemia) of 60.2 nM, a GI50 (U251 CNS) of 35.2 nM and a TGI (U251 CNS) of over 100000 nM. For the same compound, the GI50 (HOP-92 NSCLC) was 25.4 nM, the TGI (HOP-92 NSCLC) was 4940 nM and the GI50 (SR leukemia) was 22.5 nM. The TGI (SR leukemia) was over 100000 nM, the GI50 (A498 renal) was 13.9 nM and the TGI (A498 renal) was 65 nM. It also gave a GI50 (DU-145 prostate) of 41.2 nM, a TGI (DU-145 prostate) of over 100000 nM and a GI50 (BT-549 breast) of 31.1 nM. It also gave a TGI (BT-549 breast) of 21900 nM, a GI50 (NCI-H23 lung) of 53 nM and a TGI (NCI-H23 lung) of over 100000 nM. It also gave a GI50 (HS 578T breast) of 31.2 nM, a TGI (HS 578T breast) of over 100000 nM and a GI50 (SF-268 CNS) of 48.4 nM. The TGI (SF-268 CNS) was over 100000 nM, the GI50 (ACHN renal) was 44 nM and the TGI (ACHN renal) was over 100000 nM. It also gave a GI50 (UACC-62 melanoma) of 59.8 nM, a TGI (UACC-62 melanoma) of over 100000 nM and a GI50 (NCI-H522 lung) of 18 nM. It also gave a TGI (NCI-H522 lung) of 72.2 nM, a GI50 (HT29 colon) of 33.5 nM and a TGI (HT29 colon) of 17900 nM. It also gave a GI50 (K-562 leukemia) of 32.1 nM, a TGI (K-562 leukemia) of over 100000 nM and a GI50 (HOP-62 NSCLC) of 48.3 nM. For the same compound, the TGI (HOP-62 NSCLC) was over 100000 nM, the GI50 (CCRF-CEM leukemia) was 33.7 nM and the TGI (CCRF-CEM leukemia) was over 100000 nM. It also gave a GI50 (EKVX NSCLC) of 56.8 nM, a TGI (EKVX NSCLC) of over 100000 nM and a GI50 (NCI-H226 lung) of 97.5 nM. The TGI (NCI-H226 lung) was over 100000 nM, the GI50 (UACC-257 melanoma) was over 100000 nM and the TGI (UACC-257 melanoma) was over 100000 nM. For the same compound, the GI50 (SK-MEL-28 melanoma) was 13100 nM, the TGI (SK-MEL-28 melanoma) was over 100000 nM and the GI50 (MDA-MB-231 breast) was 41.6 nM. The TGI (MDA-MB-231 breast) was over 100000 nM, the GI50 (MALME-3M melanoma) was over 100000 nM and the TGI (MALME-3M melanoma) was over 100000 nM. For the same compound, the GI50 (SK-OV-3 ovarian) was 35 nM, the TGI (SK-OV-3 ovarian) was over 100000 nM and the GI50 (RPMI-8226 leukemia) was 30 nM. For the same compound, the TGI (RPMI-8226 leukemia) was 3190 nM, the GI50 (SN12C renal) was 45.7 nM and the TGI (SN12C renal) was over 100000 nM. The GI50 (HCT-15 colon) was 31.6 nM, the TGI (HCT-15 colon) was over 100000 nM and the GI50 (IGROV1 ovarian) was 57.1 nM. For the same compound, the TGI (IGROV1 ovarian) was over 100000 nM, the GI50 (OVCAR-5 ovarian) was 53.3 nM and the TGI (OVCAR-5 ovarian) was over 100000 nM. It also gave a GI50 (SNB-75 CNS) of 8430 nM, a TGI (SNB-75 CNS) of over 100000 nM and a GI50 (NCI-H460 lung) of 31.7 nM. It also gave a TGI (NCI-H460 lung) of over 100000 nM, a GI50 (SF-295 CNS) of 26 nM and a TGI (SF-295 CNS) of over 100000 nM. For the same compound, the GI50 (COLO 205 colon) was 28.8 nM, the TGI (COLO 205 colon) was 78.5 nM and the GI50 (A549 NSCLC) was 34.9 nM. The TGI (A549 NSCLC) was over 100000 nM.
